One experiment deals with T1, WT human STING isoform (Homo sapiens, UniProt Q86WV6, H232R).
T1 construct: host or cells: THP-1-Dual KI-hSTING-R232
The experiment can be described thus: THP-1-Dual KI-hSTING-R232 reporter cell line assay. The experiment is classed as cell-based. The settings on record: 24 h incubation, QUANTI-Luc luminescence; normalised to 40 μM ML RR-S2 CDA; read-out: EC50 THP-1 Dual KI-hSTING-R232 cells. As for the experimental part:
(§1) THP-1 STING Lucia ISG cells (InvivoGen #thpl-isg) were cultured in RPMI-1640 containing 2 mM L-glutamine, 25 mM HEPES, 100 μg/mL Normocin (InvivoGen) and 10% heat-inactivated FBS. Cells were seeded at a density of 7×10^5 cells/mL, maintained at 37° C./5% CO2, and passaged every 3-4 days. Selection pressure was maintained by the addition of 100 μg/mL Zeocin every second passage.
(§2) Assay conditions: cells were harvested and resuspended at a concentration of 5×10^5 cells/mL in fresh growth media. Of this cell preparation 20 μL per well was dispensed into 384 well cell culture plates (Greiner, #781098X) and incubated at 37° C./5% CO2 for 2 hours.
(§3) Concentration Response Curves (commonly 11 doses) were prepared by 2.5 fold serial dilution starting from 10 mM compound stock solution in DMSO. Compound dilutions were transferred into the cell culture plates using a pintool (0.1 μL transfer), control wells were matched for DMSO. Positive control wells received ML RR-S2 CDA (Med Chem Express HY12885B) in 5 μL of media to a final concentration of 40 μM. All other wells received additional 5 μL of media only to equalise volume. The plates were incubated for 24 h at 37° C./5% CO2.
(§4) For the detection step, QUANTI-Luc (InvivoGen #rep-qlc1) was prepared according to manufacturer's instruction and 10 μL were added per well to the culture plates. Plates were shaken for ten seconds on an orbital shaker and left in the dark at room temperature for two minutes, before luminescence was read on a Perkin Elmer Envision plate reader.
(§5) Data analysis: Luminescence raw data was normalised % activity relative to the signal of the positive control wells and negative control wells which were not treated with compound. The following formula was used to calculate normalised % activity from raw signals: % activity=(sample−negative)/(positive−negative)
(§6) The THP-1 STING Lucia ISG cell EC50 provides an assessment of activity at the human HAQ isoform of STING. For assessing compound activity against the WT human STING isoform, an equivalent method was conducted where the cells used were THP-1-Dual KI-hSTING-R232 (InvivoGen #thpd-r232).

The target in experiment [1] is T2, human HAQ isoform of STING (Homo sapiens, UniProt Q86WV6, G230A/H232R/R293Q/R71H).
T2 construct: host or cells: THP-1 STING Lucia ISG cells
T2 sequence (Q86WV6 whole entry R71H/G230A/H232R/R293Q, canonical isoform): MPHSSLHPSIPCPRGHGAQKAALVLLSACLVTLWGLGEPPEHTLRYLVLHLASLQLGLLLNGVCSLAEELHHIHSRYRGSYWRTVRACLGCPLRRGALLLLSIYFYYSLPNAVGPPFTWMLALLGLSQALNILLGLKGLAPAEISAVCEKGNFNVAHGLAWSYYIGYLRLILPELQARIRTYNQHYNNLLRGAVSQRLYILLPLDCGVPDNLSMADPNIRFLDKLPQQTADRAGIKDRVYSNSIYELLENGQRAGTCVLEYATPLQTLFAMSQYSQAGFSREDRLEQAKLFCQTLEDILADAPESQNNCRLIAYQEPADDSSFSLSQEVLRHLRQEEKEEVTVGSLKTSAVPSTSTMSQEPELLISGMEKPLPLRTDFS
In words: THP-1 STING Lucia ISG reporter cell line assay. The experiment is classed as cell-based. The conditions noted are these: 24 h incubation, QUANTI-Luc luminescence; normalised to 40 μM ML RR-S2 CDA; read-out: EC50 THP-1 STING Lucia ISG cells. As for the experimental part: as §1, §2, §3, §4, §5, §6

The next experiment has as its target T3, huSTING (HAQ) (Homo sapiens, UniProt Q86WV6, G230A/H232R/R293Q).
T3 construct: made in house; host or cells: E. coli BL21 DE3
The experiment can be described thus: Surface Plasmon Resonance (SPR) STING (HAQ). It counts as binding. The conditions noted are these: biotinylated STING on streptavidin chip, 8° C.; 50% occupancy as surrogate KD. The source says: (§7) To determine binding affinities (50% occupancy as a surrogate Ko for the two binding events occurring) from dose-response experiments, binding responses at equilibrium were fit to a Hill equation, where the Hill coefficient was floated (52). For single-cycle kinetic experiments, sensorgrams were fit to a two-step kinetic model in which two analyte molecules bind sequentially (Biacore T200 or S200 Evaluation Software).

Another experiment concerns the target T4, huSTING (WT) (Homo sapiens, UniProt Q86WV6, H232R).
T4 construct: made in house; host or cells: E. coli BL21 DE3
In words: Surface Plasmon Resonance (SPR) STING (WT). The experiment is classed as binding. The conditions noted are these: biotinylated STING on streptavidin chip, 8° C.; 50% occupancy as surrogate KD.
Excerpt: as §7

The record followed here is patent publication US12617780B2, “Benzothiophene, thienopyridine and thienopyrimidine derivatives for the modulation of sting” (CTXT PTY LTD, priority 2019, dated 2026).

T4 sequence (Q86WV6 with tags, fused parts or gaps H232R): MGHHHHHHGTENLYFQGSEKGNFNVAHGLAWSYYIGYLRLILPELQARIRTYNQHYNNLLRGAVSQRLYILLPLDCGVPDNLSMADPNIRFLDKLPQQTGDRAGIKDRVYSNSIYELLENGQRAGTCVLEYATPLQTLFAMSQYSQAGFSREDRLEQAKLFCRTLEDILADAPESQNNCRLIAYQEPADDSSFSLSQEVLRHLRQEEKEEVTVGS
T3 sequence (Q86WV6 with tags, fused parts or gaps G230A/H232R/R293Q): as the sequence (Q86WV6 with tags, fused parts or gaps H232R) above, with G100A, R163Q counted along it
T1 sequence (Q86WV6 whole entry H232R, canonical isoform): as the sequence (Q86WV6 whole entry R71H/G230A/H232R/R293Q, canonical isoform) above, with H71R, A230G, Q293R counted along it

One may read the EC50 as the concentration needed to bring the measured effect to its halfway point. In the case of `CCOC(=O)c1sc2cccc(Cl)c2c1-c1nc2cc(C(N)=O)ccc2n1C` (single isomer, unassigned) [Example 5.1, Ethyl 3-(5-Carbamoyl-1-methyl-1H-benzo[d]imidazol-2-yl)-4-chlorobenzo[b]thiophene-2-carboxylate], the values for the EC50 (on WT human STING isoform; in experiment [1]) were 20100 nM and 8270 nM, respectively.
Take `CCOC(=O)c1sc2cccc(Cl)c2c1-c1nc2ccc(C(N)=O)cc2n1C` (single isomer, unassigned) [Example 5.2, Ethyl 3-(6-carbamoyl-1-methyl-1H-benzo[d]imidazol-2-yl)-4-chlorobenzo[b]thiophene-2-carboxylate]: the half-maximal effective concentration (EC50) came out at 29400 nM at WT human STING isoform and 2510 nM in experiment [1].
In the case of `CCOC(=O)c1sc2cccc(Cl)c2c1-c1nc2cc(C(N)=O)ccc2[nH]1` [Example 1, Ethyl 3-(5-carbamoyl-1H-benzo[d]imidazol-2-yl)-4-chlorobenzo[b]thiophene-2-carboxylate], the EC50 on WT human STING isoform came to 7070 nM; in experiment [1] it was 574 nM.
In general, Kd refers to the concentration at which binding is half-saturated. For `NC(=O)c1ccc2[nH]c(-c3c(C(=O)O)sc4cccc(Cl)c34)nc2c1` [Example 2, 3-(5-Carbamoyl-1H-benzo[d]imidazol-2-yl)-4-chlorobenzo[b]thiophene-2-carboxylic acid], the EC50 at WT human STING isoform is greater than 40000 nM; in experiment [1] it was 23900 nM. The affinity at huSTING (HAQ), expressed as Kd, was 42000 nM.
Turning to `CCOC(=O)c1sc2cccc(Cl)c2c1-c1nc2cc(C(N)=O)cc(F)c2[nH]1` [Example 3, Ethyl 3-(5-carbamoyl-7-fluoro-1H-benzo[d]imidazol-2-yl)-4-chlorobenzo[b]thiophene-2-carboxylate], the EC50 is 2580 nM on WT human STING isoform and 455 nM in experiment [1].
Consider `CCOC(=O)c1sc2cccc(Cl)c2c1-c1nc2ccc(C(N)=O)c(OC)c2[nH]1` [Example 4, Ethyl 3-(6-carbamoyl-7-methoxy-1H-benzo[d]imidazol-2-yl)-4-chlorobenzo[b]thiophene-2-carboxylate], for which the EC50 turned out to be 57 nM on WT human STING isoform and 4.1 nM in experiment [1].
Take `CCOC(=O)c1sc2c(F)ccc(Br)c2c1-c1nc2cc(C(N)=O)ccc2[nH]1` [Example 7, Ethyl 4-bromo-3-(5-carbamoyl-1H-benzo[d]imidazol-2-yl)-7-fluorobenzo[b]thiophene-2-carboxylate]: the results for the EC50 (at WT human STING isoform; in experiment [1]) were 2120 nM and 441 nM, respectively.
In the case of `NC(=O)c1ccc2[nH]c(-c3c(C(=O)O)sc4c(F)ccc(Br)c34)nc2c1` [Example 8, 4-Bromo-3-(5-carbamoyl-1H-benzo[d]imidazol-2-yl)-7-fluorobenzo[b]thiophene-2-carboxylic acid], the EC50 on WT human STING isoform is 16400 nM; in experiment [1], 18300 nM. In addition, the results for the dissociation constant Kd on huSTING (WT) and on huSTING (HAQ) were 91000 nM and 6700 nM, respectively.
Consider `COc1c(C(N)=O)ccc2nc(-c3c(C(=O)O)sc4cccc(Cl)c34)[nH]c12` [Example 9, 3-(6-Carbamoyl-7-methoxy-1H-benzo[d]imidazol-2-yl)-4-chlorobenzo[b]thiophene-2-carboxylic acid], for which the EC50 is 4670 nM at WT human STING isoform and 2460 nM in experiment [1]. In addition, the Kd on huSTING (WT) is 51000 nM; at huSTING (HAQ), 3100 nM.
Consider `CCOC(=O)c1sc2c(F)ccc(Br)c2c1-c1nc2ccc(C(N)=O)c(OC)c2[nH]1` [Example 10, Ethyl 4-bromo-3-(6-carbamoyl-7-methoxy-1H-benzo[d]imidazol-2-yl)-7-fluorobenzo[b]thiophene-2-carboxylate], for which the EC50 is 121 nM on WT human STING isoform and 43 nM in experiment [1].
Consider `COc1c(C(N)=O)ccc2nc(-c3c(C(=O)O)sc4c(F)ccc(Br)c34)[nH]c12` [Example 11, 4-Bromo-3-(6-carbamoyl-7-methoxy-1H-benzo[d]imidazol-2-yl)-7-fluorobenzo[b]thiophene-2-carboxylic acid], for which the EC50 on WT human STING isoform came out at 1040 nM; in experiment [1], 651 nM. Besides, the Kd at huSTING (WT) amounted to 1450 nM; on huSTING (HAQ), 140 nM.
Regarding `CCOC(=O)c1sc2cccc(Cl)c2c1-c1nc2c(Cl)c(C(N)=O)ccc2[nH]1` [Example 12, Ethyl 3-(5-carbamoyl-4-chloro-1H-benzo[d]imidazol-2-yl)-4-chlorobenzo[b]thiophene-2-carboxylate], the EC50 at WT human STING isoform is 24 nM; in experiment [1], 12 nM.
Consider `NC(=O)c1ccc2[nH]c(-c3c(C(=O)O)sc4cccc(Cl)c34)nc2c1Cl` [Example 13, 3-(5-Carbamoyl-4-chloro-1H-benzo[d]imidazol-2-yl)-4-chlorobenzo[b]thiophene-2-carboxylic acid], for which the concentration for a half-maximal effect (EC50) at WT human STING isoform was 4380 nM; in experiment [1], 6100 nM. The compound further returned a Kd on huSTING (HAQ) of 33300 nM.
On to `CCOC(=O)c1sc2c(F)ccc(Br)c2c1-c1nc2ccc(C(N)=O)c(OCC)c2[nH]1` [Example 14, Ethyl 4-bromo-3-(6-carbamoyl-7-ethoxy-1H-benzo[d]imidazol-2-yl)-7-fluorobenzo[b]thiophene-2-carboxylate], for which the figures for the EC50 (on WT human STING isoform; in experiment [1]) were 2720 nM and 576 nM, respectively.
On to `CCOc1c(C(N)=O)ccc2nc(-c3c(C(=O)O)sc4c(F)ccc(Br)c34)[nH]c12` [Example 15, 4-Bromo-3-(6-carbamoyl-7-ethoxy-1H-benzo[d]imidazol-2-yl)-7-fluorobenzo[b]thiophene-2-carboxylic acid], for which the concentration giving a half-maximal response (EC50) (at WT human STING isoform; in experiment [1]) was greater than 40000 nM each time. Also, at huSTING (HAQ), the Kd amounted to 55700 nM.
For the compound `CCOC(=O)c1sc2c(Br)cnc(OC)c2c1-c1nc2c(OC)c(C(N)=O)ccc2[nH]1` [Example 16, Ethyl 7-bromo-3-(5-carbamoyl-4-methoxy-1H-benzo[d]imidazol-2-yl)-4-methoxythieno[3,2-c]pyridine-2-carboxylate], the EC50 on WT human STING isoform turned out to be 2730 nM; in experiment [1], 1550 nM.
Turning to `CCOC(=O)c1sc2c(F)ccc(Cl)c2c1-c1nc2c(OC)c(C(N)=O)cc(Cl)c2[nH]1` [Example 18, Ethyl 3-(5-carbamoyl-7-chloro-4-methoxy-1H-benzo[d]imidazol-2-yl)-4-chloro-7-fluorobenzo[b]thiophene-2-carboxylate], the EC50 came to 2270 nM at WT human STING isoform and 1830 nM in experiment [1].
In the case of `CCOC(=O)c1sc2cccc(OC)c2c1-c1nc2c(OC)c(C(N)=O)ccc2[nH]1` [Example 19, Ethyl 3-(5-carbamoyl-4-methoxy-1H-benzo[d]imidazol-2-yl)-4-methoxybenzo[b]thiophene-2-carboxylate], the EC50 at WT human STING isoform was found to be 82 nM; in experiment [1], 28 nM.
On the same counts, the results for `CCOC(=O)c1sc2c(F)ccc(Cl)c2c1-c1nc2c(OC)c(C(N)=O)ccc2[nH]1` [Example 20, Ethyl 3-(5-carbamoyl-4-methoxy-1H-benzo[d]imidazol-2-yl)-4-chloro-7-fluorobenzo[b]thiophene-2-carboxylate] are 131 nM and 122 nM.
For `COc1c(C(N)=O)cc(F)c2[nH]c(-c3c(C(=O)O)sc4c(F)ccc(Cl)c34)nc12` [Example 21, 3-(5-Carbamoyl-7-fluoro-4-methoxy-1H-benzo[d]imidazol-2-yl)-4-chloro-7-fluorobenzo[b]thiophene-2-carboxylic acid], the EC50 turned out to be 4930 nM at WT human STING isoform and 3590 nM in experiment [1].
With `COc1c(C(N)=O)ccc2[nH]c(-c3c(C(=O)O)sc4cccc(OC)c34)nc12` [Example 22, 3-(5-Carbamoyl-4-methoxy-1H-benzo[d]imidazol-2-yl)-4-methoxybenzo[b]thiophene-2-carboxylic acid], the EC50 on WT human STING isoform was 9040 nM; in experiment [1], 9360 nM.
For the compound `CCOC(=O)c1sc2c(F)ccc(Cl)c2c1-c1nc2c(OC)c(C(N)=O)cc(F)c2[nH]1` [Example 23, Ethyl 3-(5-carbamoyl-7-fluoro-4-methoxy-1H-benzo[d]imidazol-2-yl)-4-chloro-7-fluorobenzo[b]thiophene-2-carboxylate], the EC50 was determined as 119 nM on WT human STING isoform and 115 nM in experiment [1].
